Source: patent publication US20230099344A1, “COMPOUNDS AND METHODS FOR THE TARGETED DEGRADATION OF IRAK-4” (Arvinas Operations, Inc., priority 2021, published 2023)

How the values were obtained:
Type in all cases: cell-based
IRAK-4 [1] = molecular target: T1, IRAK-4 (Homo sapiens, UniProt Q9NWZ3); assay: IRAK-4 ELISA, OCI-Ly10 degradation; design: endogenous in cells; conditions: treated overnight; for Dmax: OCI-Ly10, OCI-Ly10 cells; for DC50: OCI-Ly10 cells
T1 sequence (Q9NWZ3 1-460): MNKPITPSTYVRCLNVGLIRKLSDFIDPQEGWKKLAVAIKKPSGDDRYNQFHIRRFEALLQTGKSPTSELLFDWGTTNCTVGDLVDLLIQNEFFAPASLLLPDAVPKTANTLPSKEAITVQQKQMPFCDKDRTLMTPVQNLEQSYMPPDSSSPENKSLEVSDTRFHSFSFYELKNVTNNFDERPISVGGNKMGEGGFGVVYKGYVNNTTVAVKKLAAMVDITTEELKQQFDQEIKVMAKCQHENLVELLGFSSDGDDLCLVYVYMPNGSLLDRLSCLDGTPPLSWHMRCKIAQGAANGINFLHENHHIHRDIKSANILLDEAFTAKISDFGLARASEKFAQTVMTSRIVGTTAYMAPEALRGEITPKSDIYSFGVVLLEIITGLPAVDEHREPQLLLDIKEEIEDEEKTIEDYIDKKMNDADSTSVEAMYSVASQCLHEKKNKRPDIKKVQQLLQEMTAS
Description: Reagents: Human IRAK-4 Matched Antibody Pair Kit (Abcam ab218182) and ELISA Accessory Pack (Abcam ab210905).
Cell Treatment and Lysis:
1. OCI-Ly10: 200,000 cells are seeded at 1×10^6/ml in 96-well U-bottom plates 200 ul per well, treated with compound the same day. Incubate overnight. 2. PBMC: 800,000 cells are seeded at 2×10^6/ml in 96-well U-bottom deep-well plates, 400 ul per well, treated with compound the same day. Incubate overnight.
Cell lysate is collected and analyzed by ELISA for IRAK-4 levels.

IRAK-4 [2] = molecular target: T1, IRAK-4; assay: IRAK-4 ELISA, PBMC degradation; design: endogenous in cells; host or cells: PBMC; conditions: treated overnight
Procedure, shortened: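 IRAK-4 levels measured by matched-antibody-pair ELISA on lysates after overnight compound exposure. Cells seeded same day: PBMC at 2×10^6/ml, OCI-Ly10 at 1×10^6/ml.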

IL6 [3] = assay: IL-1β stimulated IL6 inhibition assay in PBMC; conditions: human PBMCs, IL-1β stimulation, compound overnight, IL6 by MSD after 24 hrs; for IC50: read-out: IL1β stim IL6 inhibition IC50; for Emax: read-out: IL1β stim IL6 inhibition Ymax
Description: (§1) IL-1β, LPS, or R848 Stimulated IL6 Inhibition and IL-1β Stimulated IL8 Inhibition Assay
(§2) Human PBMC cells were seeded at 2.0×10^6 cells/mL, treated with compound overnight, and dosed with the EC50 concentration of each stimulant (either IL-1B. LPS, or R848) was determined for each donor. After 24 hrs, media was collected and analyzed by MSD for IL6 and/or IL8 levels.

IL8 = assay: IL-1β stimulated IL8 inhibition assay in PBMC; conditions: human PBMCs, IL-1β stimulation, compound overnight, IL8 by MSD after 24 hrs; for IC50: read-out: IL1β stim IL8 inhibition IC50; for Emax: read-out: IL1β stim IL8 inhibition Ymax
Description: as §1, §2

IL6 [4] = assay: R848 stimulated IL6 inhibition assay in PBMC; conditions: PBMC, human PBMCs, R848 stimulation, compound overnight, IL6 by MSD after 24 hrs
Procedure, shortened: (§3)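 Seed human PBMC, 2.0×10^6 cells/mL → compound overnight → stimulant (IL-1β, LPS or R848) at per-donor EC50 → 24 hrs → media to MSD for IL6/IL8.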

IL6 [5] = assay: LPS stimulated IL6 inhibition assay in PBMC; conditions: Homo sapiens, PBMC, 24 h, human PBMCs, LPS stimulation, compound overnight, IL6 by MSD after 24 hrs
Procedure, shortened: as §3

SMILES | Dmax (IRAK-4 [1]) [%] | DC50 (IRAK-4 [1]) [nM] | DC50 (IRAK-4 [2]) [nM] | Dmax (IRAK-4 [2]) [%] | PBMC DC90 (IRAK-4 [2]) | IC50 (IL6 [3]; Homo sapiens, PBMC, 24 h) [nM] | Emax (IL6 [3]; PBMC) [%] | IC50 (IL8) [nM] | Emax (IL8) [%] | IC50 (IL6 [3]) [nM] | Dmax (IL6 [4]; Homo sapiens, 24 h, read-out: R848 stim IL6 inhibition Dmax) [%] | IC50 (IL6 [4]; read-out: R848 stim IL6 inhibition IC50) [nM] | Dmax (IL6 [5]; read-out: LPS Stim IL6 inhibition Dmax) [%] | IC50 (IL6 [5]; read-out: LPS stim IL6 inhibition IC50) [nM]
CC(C)Oc1cc2c(cc1NC(=O)c1cnn3cccnc13)CN(C1CCN(CC3CN(c4ccc5c(c4)CN(C4CCC(=O)NC4=O)C5=O)C3)CC1)C2=O (centres unmarked) [Example 4] | ≥ 90 | < 10 | < 1 | ≥ 90 | 4 nM | < 10 | ≥ 90 | 10 to 50 | 80 to 90 | – | – | – | – | –
CC(C)Oc1cc2c(cc1NC(=O)c1cnn3cccnc13)CN(C1CCN(CC3CN(c4ccc5c(c4)C(=O)N(C4CCC(=O)NC4=O)C5=O)C3)CC1)C2=O (centres unmarked) [Example 5] | ≥ 90 | < 10 | 1 to 5 | 80 to 90 | 5 nM | 10 to 50 | 80 to 90 | 50 to 100 | 80 to 90 | – | – | – | – | –
CC(C)Oc1cc2c(cc1NC(=O)c1cnn3cccnc13)CN(C1CCN(CC3CCN(c4ccc5c(c4)CN(C4CCC(=O)NC4=O)C5=O)CC3)CC1)C2=O (centres unmarked) [Example 6] | – | – | < 1 | ≥ 90 | 6 nM | < 10 | ≥ 90 | 10 to 50 | 80 to 90 | – | – | – | – | –
Cc1cnc2c(C(=O)Nc3cc4c(cc3OC(C)C)C(=O)N(C3CCN(CCc5ccc6c(c5)CN(C5CCC(=O)NC5=O)C6=O)CC3)C4)cnn2c1 (centres unmarked) [Example 9] | ≥ 90 | < 10 | 1 to 5 | 80 to 90 | A (A represents a DC90 value <10.0 nM) | < 10 | ≥ 90 | 10 to 50 | 70 to 80 | – | – | – | – | –
COc1cc(N2CCC(CN3CCC(N4Cc5cc(NC(=O)c6cnn7cccnc67)c(OC(C)C)cc5C4=O)CC3)CC2)cc2c1C(=O)N(C1CCC(=O)NC1=O)C2=O (centres unmarked) [Example 12] | ≥ 90 | < 10 | < 1 | ≥ 90 | A (A represents a DC90 value <10.0 nM) | 10 to 50 | 80 to 90 | 10 to 50 | < 70 | – | – | – | – | –
CC(C)Oc1cc2c(cc1NC(=O)c1cnn3cccnc13)CN(C1CCN(CC3CCN(c4cc5c(cc4F)C(=O)N(C4CCC(=O)NC4=O)C5=O)CC3)CC1)C2=O (centres unmarked) [Example 13] | – | – | < 1 | ≥ 90 | C (C represents a DC90 value ≥25.0 nM and <50 nM) | 10 to 50 | ≥ 90 | ≥ 100 | ≥ 90 | – | – | – | – | –
O=C1CCC(N2Cc3cc(N4CCC(CN5CCC(N6Cc7cc(NC(=O)c8cnn9cccnc89)c(OCC8CC8)cc7C6=O)CC5)CC4)ccc3C2=O)C(=O)N1 (centres unmarked) [Example 22] | – | – | < 1 | 80 to 90 | A (A represents a DC90 value <10.0 nM) | < 10 | ≥ 90 | 10 to 50 | 70 to 80 | – | – | – | – | –
O=C1CCC(N2Cc3cc(N4CC(CN5CCC(N6Cc7cc(NC(=O)c8cnn9cccnc89)c(OCC8CC8)cc7C6=O)CC5)C4)ccc3C2=O)C(=O)N1 (centres unmarked) [Example 29] | 70 to 80 | < 10 | 1 to 5 | 80 to 90 | A (A represents a DC90 value <10.0 nM) | 10 to 50 | < 70 | 50 to 100 | 70 to 80 | – | – | – | – | –
O=C1CCC(N2C(=O)c3ccc(N4CCC(CN5CCC(N6Cc7cc(NC(=O)c8cnn9cccnc89)c(OCC8CC8)cc7C6=O)CC5)CC4)cc3C2=O)C(=O)N1 (centres unmarked) [Example 30] | ≥ 90 | < 10 | < 1 | 80 to 90 | A (A represents a DC90 value <10.0 nM) | 10 to 50 | ≥ 90 | ≥ 100 | – | – | – | – | – | –
O=C1CCC(N2C(=O)c3ccc(N4CCC(CN5CCC(N6Cc7cc(NC(=O)c8cnn9cccnc89)c(N8CCOCC8)cc7C6=O)CC5)CC4)cc3C2=O)C(=O)N1 (centres unmarked) [Example 31] | 80 to 90 | < 10 | 1 to 5 | ≥ 90 | B (B represents a DC90 value ≥10.0 nM and <25.0 nM) | – | ≥ 90 | – | – | ≥ 100 | – | – | – | –
CC(C)Oc1cc2c(cc1NC(=O)c1cnn3cccnc13)CN([C@H]1CC[C@H](N3CCN(c4ccc5c(c4)C(=O)N(C4CCC(=O)NC4=O)C5=O)CC3)CC1)C2=O (some centres unmarked) [Example 66] | – | – | 1 to 5 | ≥ 90 | A (A represents a DC90 value <10.0 nM) | 10 to 50 | ≥ 90 | 50 to 100 | 70 to 80 | – | – | – | – | –
CC(C)Oc1cc2c(cc1NC(=O)c1cnn3cccnc13)CN([C@H]1CC[C@@H](N3CCN(c4ccc5c(c4)C(=O)N(C4CCC(=O)NC4=O)C5=O)CC3)CC1)C2=O (some centres unmarked) [Example 67] | – | – | 1 to 5 | ≥ 90 | C (C represents a DC90 value ≥25.0 nM and <50 nM) | 10 to 50 | ≥ 90 | ≥ 100 | ≥ 90 | – | – | – | – | –
CC(C)Oc1cc2c(cc1NC(=O)c1cnn3cccnc13)CN(C1CCN(C(C)(C)C3CCN(c4ccc5c(c4)C(=O)N(C4CCC(=O)NC4=O)C5=O)CC3)CC1)C2=O (centres unmarked) [Example 82] | ≥ 90 | < 10 | < 1 | ≥ 90 | A (A represents a DC90 value <10.0 nM) | – | – | – | – | – | ≥ 90 | 10 to 50 | 70 to 80 | 10 to 50
O=C1CCC(N2Cc3cc(N4CC(N5CCC(n6cc7cc(NC(=O)c8cnn9cccnc89)c(OCC8CC8)cc7n6)CC5)C4)ccc3C2=O)C(=O)N1 (centres unmarked) [Example 283] | – | – | < 1 | ≥ 90 | A (A represents a DC90 value <10.0 nM) | < 10 | ≥ 90 | 10 to 50 | < 70 | – | – | – | – | –
CC(C)Oc1cc2c(cc1NC(=O)c1cnn3cccnc13)CN(C1CCC(N(C)C3CN(c4ccc5c(c4)CN(C4CCC(=O)NC4=O)C5=O)C3)CC1)C2=O (centres unmarked) [Example 314] | – | – | < 1 | 80 to 90 | A (A represents a DC90 value <10.0 nM) | < 10 | ≥ 90 | 10 to 50 | 70 to 80 | – | – | – | – | –
CN(C1CN(c2ccc3c(c2)C(=O)N(C2CCC(=O)NC2=O)C3=O)C1)[C@H]1CC[C@H](n2cc3cc(NC(=O)c4cnn5cccnc45)c(OCC4CC4)cc3n2)CC1 (some centres unmarked) [Example 336] | – | – | < 1 | ≥ 90 | A (A represents a DC90 value <10.0 nM) | < 10 | ≥ 90 | 10 to 50 | 70 to 80 | – | – | – | – | –
CC(C)Oc1nc2c(cc1NC(=O)c1cnn3cccnc13)CN(C1CCN(CC3CN(c4ccc5c(c4)C(=O)N(C4CCC(=O)NC4=O)C5=O)C3)CC1)C2=O (centres unmarked) [Example 398] | – | – | < 1 | ≥ 90 | A (A represents a DC90 value <10.0 nM) | < 10 | ≥ 90 | ≥ 100 | – | – | – | – | – | –
CC(C)Oc1nc2c(cc1NC(=O)c1cnn3cccnc13)CN(C1CCN(CCc3ccc4c(c3)C(=O)N(C3CCC(=O)NC3=O)C4=O)CC1)C2=O (centres unmarked) [Example 400] | – | – | 5 to 10 | 80 to 90 | D (D represents a DC90 value ≥50 nM) | ≥ 100 | ≥ 90 | ≥ 100 | – | – | – | – | – | –
